According to US9023855B2, “Compounds” (Chiesi Farmaceutici S.p.A., priority 2011, dated 2015):

Target: T1, human neutrophil elastase (HNE) (Homo sapiens, UniProt P08246)
T1 construct: purchased Sigma E8140
T1 sequence (P08246 30-267): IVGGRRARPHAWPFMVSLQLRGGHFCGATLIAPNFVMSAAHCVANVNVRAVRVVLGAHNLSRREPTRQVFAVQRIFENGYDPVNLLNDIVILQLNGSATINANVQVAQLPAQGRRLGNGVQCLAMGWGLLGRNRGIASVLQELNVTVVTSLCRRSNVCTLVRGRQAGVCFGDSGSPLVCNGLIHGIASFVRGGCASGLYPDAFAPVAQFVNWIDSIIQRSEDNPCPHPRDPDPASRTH
Test: HNE enzyme assay (fluorogenic peptide substrate MeOSuc-Ala-Ala-Pro-Val-AMC)
Format: biochemical
Settings: human leukocyte elastase, substrate 100 μM, 25° C., 30 minutes, at least two separate experiments; read-out: HNE inhibition (IC50 values)
Procedure: Compounds of this invention were tested for potency in a human neutrophil elastase (HNE) enzyme activity assay.
Assays were performed in 96-well plates in a total assay volume of 100 μl. The final concentration of elastase enzyme (human leukocyte elastase, Sigma E8140) was 0.0036 units/well […]. The peptide substrate (MeOSuc-Ala-Ala-Pro-Val-AMC, Calbiochem #324740) was used at a final concentration of 100 μM. The final concentration of DMSO was 1% in the assay buffer (0.05M Tris.HCl, 0.1M NaCl, 0.1M CaCl2, 0.0005% brij-35, pH 7.5). The enzymatic reaction was started by addition of the enzyme and incubated at 25° C. for 30 minutes. After incubation, the reaction was stopped by addition of soybean trypsin inhibitor (Sigma T9003) at a final concentration of 50 μg/well. Fluorescence was measured using a Molecular Devices fluorescence plate reader using 380 nm excitation and 460 nm emission wavelengths.
A dose response to each compound was performed, and the effect of the compound in each experiment was expressed as a percentage inhibition of the control enzyme fluorescence. Dose response curves were plotted and compound potency (IC50) was determined. Compounds were tested in at least two separate experiments.

`CC1=C(C#N)C(c2ccc(C#N)cc2)n2c(nn(CCCS(=O)(=O)CCC[N+](C)(C)C)c2=O)N1c1cccc(C(F)(F)F)c1` (centres unmarked) [Example 39, (3-{3-[6-Cyano-5-(4-cyano-phenyl)-7-methyl-3-oxo-8-(3-trifluoromethyl-phenyl)-5,8-dihydro-[1,2,4]triazolo[4,3-a]pyrimidin-2-yl]-propane-1-sulfonyl}-propyl)-trimethylammonium toluene-4-sulfonate] and `COC(=O)C1=C(C)N(c2cccc(C(F)(F)F)c2)c2nn(CCCS(C)(=O)=O)c(=O)n2[C@@H]1c1ccc(C#N)cc1` [Example 18, (R)-5-(4-Cyano-phenyl)-2-(3-methanesulfonyl-propyl)-7-methyl-3-oxo-8-(3-trifluoromethyl-phenyl)-2,3,5,8-tetrahydro-[1,2,4]triazolo[4,3-a]pyrimidine-6-carboxylic acid methyl ester] cannot be ordered by IC50: under 20 nM for the first, under 20 nM for the second.

`COC(=O)C1=C(C)N(c2cccc(C(F)(F)F)c2)c2nn(CC(=O)N(C)CC[N+](C)(C)C)c(=O)n2C1c1ccc(C#N)cc1` (centres unmarked) [Example 27, [2-({2-[5-(4-Cyano-phenyl)-6-methoxycarbonyl-7-methyl-3-oxo-8-(3-trifluoromethyl-phenyl)-5,8-dihydro-[1,2,4]triazolo[4,3-a]pyrimidin-2-yl]-acetyl}-methyl-amino)-ethyl]trimethyl-ammonium bromide] and `COC(=O)C1=C(C)N(c2cccc(C(F)(F)F)c2)c2nn(CC(=O)N(C)CCCCC[N+](C)(C)C)c(=O)n2[C@@H]1c1ccc(C#N)cc1` [Example 34, (R)-[5-({2-[5-(4-Cyano-phenyl)-6-methoxycarbonyl-7-methyl-3-oxo-8-(3-trifluoromethyl-phenyl)-5,8-dihydro-[1,2,4]triazolo[4,3-a]pyrimidin-2-yl]-acetyl}-methyl-amino)pentyl]-trimethyl-ammonium chloride] cannot be ordered by IC50: under 20 nM for the first, under 20 nM for the second.

Compared with `COC(=O)C1=C(C)N(c2cccc(C(F)(F)F)c2)c2nn(S(=O)(=O)c3ccc(CN(C)CCN(C)C)cc3)c(=O)n2C1c1ccc(C#N)cc1` (centres unmarked) [Example 19, 5-(4-Cyano-phenyl)-2-(4-{[(2-dimethylamino-ethyl)-methyl-amino]-methyl}-benzenesulfonyl)-7-methyl-3-oxo-8-(3-trifluoromethyl-phenyl)-2,3,5,8-tetrahydro-[1,2,4]triazolo[4,3-a]pyrimidine-6-carboxylic acid methyl ester], `COC(=O)C1=C(C)N(c2cccc(C(F)(F)F)c2)c2nn(CCc3ccc(S(C)(=O)=O)cc3)c(=O)n2[C@@H]1c1ccc(C#N)cc1` [Example 20, (R)-5-(4-Cyano-phenyl)-2-[2-(4-methanesulfonyl-phenyl)-ethyl]-7-methyl-3-oxo-8-(3-trifluoromethyl-phenyl)-2,3,5,8-tetrahydro-[1,2,4]triazolo[4,3-a]pyrimidine-6-carboxylic acid methyl ester] is lower in IC50: 20 to 100 nM for the first, under 20 nM for the second. The second is the more potent here.

Compared with `CCNC(=O)C1=C(C)N(c2cccc(C(F)(F)F)c2)c2n[nH]c(=O)n2C1c1ccc(C#N)cc1` (centres unmarked) [Example 12, 5-(4-Cyano-phenyl)-7-methyl-3-oxo-8-(3-trifluoromethyl-phenyl)-2,3,5,8-tetrahydro-[1,2,4]triazolo[4,3-a]pyrimidine-6-carboxylic acid ethylamide], `CC1=C(C#N)C(c2ccc(C#N)cc2)n2c(n[nH]c2=O)N1c1cccc(C(F)(F)F)c1` (centres unmarked) [Example 14, 5-(4-Cyano-phenyl)-7-methyl-3-oxo-8-(3-trifluoromethyl-phenyl)-2,3,5,8-tetrahydro-[1,2,4]triazolo[4,3-a]pyrimidine-6-carbonitrile] is lower in IC50: 20 to 100 nM for the first, under 20 nM for the second.

`COC(=O)C1=C(C)N(c2cccc(C(F)(F)F)c2)c2nn(CCCN(C)C)c(=O)n2C1c1ccc(C#N)cc1` (centres unmarked) [Example 3] and `COC(=O)C1=C(C)N(c2cccc(C(F)(F)F)c2)c2nn(CCCN(C)C(C)=O)c(=O)n2C1c1ccc(C#N)cc1` (centres unmarked) [Example 35, 2-[3-(Acetyl-methyl-amino)-propyl]-5-(4-cyano-phenyl)-7-methyl-3-oxo-8-(3-trifluoromethylphenyl)-2,3,5,8-tetrahydro-[1,2,4]triazolo[4,3-a]pyrimidine-6-carboxylic acidmethyl ester] cannot be ordered by IC50: under 20 nM for the first, under 20 nM for the second.

`COC(=O)C1=C(C)N(c2cccc(C(F)(F)F)c2)c2nn(CCCN(C)S(C)(=O)=O)c(=O)n2C1c1ccc(C#N)cc1` (centres unmarked) [Example 36, 5-(4-Cyano-phenyl)-2-[3-(methanesulfonyl-methyl-amino)-propyl]-7-methyl-3-oxo-8-(3-trifluoromethyl-phenyl)-2,3,5,8-tetrahydro-[1,2,4]triazolo[4,3-a]pyrimidine-6-carboxylic acidmethyl ester] and `COC(=O)C1=C(C)N(c2cccc(C(F)(F)F)c2)c2nn(CCCS(C)(=O)=O)c(=O)n2C1c1ccc(C#N)cc1` (centres unmarked) [Example 16, 5-(4-Cyano-phenyl)-2-(3-methanesulfonyl-propyl)-7-methyl-3-oxo-8-(3-trifluoromethyl-phenyl)-2,3,5,8-tetrahydro-[1,2,4]triazolo[4,3-a]pyrimidine-6-carboxylic acid methyl ester] cannot be ordered by IC50: under 20 nM for the first, under 20 nM for the second.

`COC(=O)C1=C(C)N(c2cccc(C(F)(F)F)c2)c2nn(CCCN3CCCC3=O)c(=O)n2C1c1ccc(C#N)cc1` (centres unmarked) [Example 24, 5-(4-Cyano-phenyl)-7-methyl-3-oxo-2-[3-(2-oxo-pyrrolidin-1-yl)-propyl]-8-(3-trifluoromethyl-phenyl)-2,3,5,8-tetrahydro-[1,2,4]triazolo[4,3-a]pyrimidine-6-carboxylic acid methyl ester] and `COC(=O)C1=C(C)N(c2cccc(C(F)(F)F)c2)c2nn(C)c(=O)n2C1c1ccc(C#N)cc1` (centres unmarked) [Example 6, 5-(4-Cyanophenyl)-2,7-dimethyl-3-oxo-8-(3-trifluoromethylphenyl)-2,3,5,8-tetrahydro-[1,2,4]triazolo[4,3-a]pyrimidine-6-carboxylic acid methyl ester] cannot be ordered by IC50: under 20 nM for the first, under 20 nM for the second.

`COC(=O)C1=C(C)N(c2cccc(C(F)(F)F)c2)c2nn(CC(N)=O)c(=O)n2C1c1ccc(C#N)cc1` (centres unmarked) [Example 2, 2-Carbamoylmethyl-5-(4-cyanophenyl)-7-methyl-3-oxo-8-(3-trifluoromethylphenyl)-2,3,5,8-tetrahydro-[1,2,4]triazolo[4,3-a]pyrimidine-6-carboxylic acid methyl ester] and `COC(=O)C1=C(C)N(c2cccc(C(F)(F)F)c2)c2nn(CC(=O)N(C)CCN(C)C)c(=O)n2C1c1ccc(C#N)cc1` (centres unmarked) [Example 25, 5-(4-Cyano-phenyl)-2-{[(2-dimethylamino-ethyl)-methyl-carbamoyl]-methyl}-7-methyl-3-oxo-8-(3-trifluoromethyl-phenyl)-2,3,5,8-tetrahydro-[1,2,4]triazolo[4,3-a]pyrimidine-6-carboxylic acid methyl ester] cannot be ordered by IC50: under 20 nM for the first, under 20 nM for the second.

In the case of `COC(=O)C1=C(C)N(c2cccc(C(F)(F)F)c2)c2nn(Cc3ccc(S(C)(=O)=O)cn3)c(=O)n2C1c1ccc(C#N)cc1` (centres unmarked) [Example 23, 5-(4-Cyano-phenyl)-2-(5-methanesulfonyl-pyridin-2-ylmethyl)-7-methyl-3-oxo-8-(3-trifluoromethyl-phenyl)-2,3,5,8-tetrahydro-[1,2,4]triazolo[4,3-a]pyrimidine-6-carboxylic acid methyl ester], the IC50 is reported as under 20 nM.
